“And” between values parts separate entries of the source, which are not always exact repeats. Equal values may be shown once.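 Following 48 hours of exposure in 96-well plates, responses at five concentrations were used to interpolate endpoints linearly. Abbreviation: GI50, concentration required for 50% inhibition of growth.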 The source made the active and inactive calls. Cut-off read from the data, not from the text of the source: active = GI50 up to about 1.1 µM and inactive = higher.
How the values were obtained:
Assay in all cases: DTP human tumour cell line panel, 48 h
SK-OV-3 = system: SK-OV-3
MDA-MB-231 = system: MDA-MB-231
A549 = system: A549
RPMI-8226 = system: RPMI-8226
HCT-116 = system: HCT-116
Hs-578T = system: Hs-578T
CCRF-CEM = system: CCRF-CEM
SNB-75 = system: SNB-75
SK-MEL-5 = system: SK-MEL-5
HCC 2998 = system: HCC 2998
SK-MEL-2 = system: SK-MEL-2
SF-295 = system: SF-295
SK-MEL-28 = system: SK-MEL-28
HCT-15 = system: HCT-15
SN12C = system: SN12C
SR = system: SR
UO-31 = system: UO-31
PC-3 = system: PC-3
NCI-H460 = system: NCI-H460
MCF7 = system: MCF7
OVCAR-5 = system: OVCAR-5
U-251 = system: U-251
HOP-62 = system: HOP-62
IGROV-1 = system: IGROV-1
M14 = system: M14
SW-620 = system: SW-620
T47D = system: T47D
LOX IMVI = system: LOX IMVI
K562 = system: K562
DU-145 = system: DU-145
COLO 205 = system: COLO 205
NCI-H522 = system: NCI-H522
HL-60 = system: HL-60
NCI/ADR-RES = system: NCI/ADR-RES
OVCAR-8 = system: OVCAR-8
ACHN = system: ACHN
HT-29 = system: HT-29
CAKI-1 = system: CAKI-1
TK-10 = system: TK-10
OVCAR-4 = system: OVCAR-4
MOLT-4 = system: MOLT-4
MDA-N = system: MDA-N
HOP-92 = system: HOP-92
NCI-H23 = system: NCI-H23
OVCAR-3 = system: OVCAR-3
SNB-19 = system: SNB-19
NCI-H226 = system: NCI-H226
UACC-257 = system: UACC-257
MDA-MB-435 = system: MDA-MB-435
786-0 = system: 786-0
KM12 = system: KM12
A498 = system: A498
EKVX = system: EKVX
SF-268 = system: SF-268
UACC-62 = system: UACC-62
SF-539 = system: SF-539
Malme-3M = system: Malme-3M
RXF 393 = system: RXF 393

## C=CCP(=O)(CC=C)C(Cl)Cl
SK-OV-3
  GI50: > 100 µM (inactive)
MDA-MB-231
  GI50: > 100 µM (inactive)
A549
  GI50: > 100 µM (inactive)
RPMI-8226
  GI50: > 100 µM (inactive)
HCT-116
  GI50: > 100 µM (inactive)
Hs-578T
  GI50: > 100 µM (inactive)
CCRF-CEM
  GI50: > 100 µM (inactive)
SNB-75
  GI50: > 100 µM (inactive)
SK-MEL-5
  GI50: > 100 µM (inactive)
HCC 2998
  GI50: > 100 µM (inactive)
SK-MEL-2
  GI50: > 100 µM (inactive)
SF-295
  GI50: > 100 µM (inactive)
SK-MEL-28
  GI50: > 100 µM (inactive)
HCT-15
  GI50: > 100 µM
SN12C
  GI50: > 100 µM (inactive)
SR
  GI50: > 100 µM (inactive)
UO-31
  GI50: > 100 µM (inactive)
PC-3
  GI50: > 100 µM (inactive)
NCI-H460
  GI50: > 100 µM (inactive)
MCF7
  GI50: > 100 µM (inactive)
OVCAR-5
  GI50: > 100 µM (inactive)
U-251
  GI50: > 100 µM (inactive)
HOP-62
  GI50: > 100 µM (inactive)
IGROV-1
  GI50: > 100 µM (inactive)
M14
  GI50: > 100 µM (inactive)
SW-620
  GI50: > 100 µM (inactive)
T47D
  GI50: > 100 µM (inactive)
LOX IMVI
  GI50: > 100 µM (inactive)
K562
  GI50: > 100 µM (inactive)
DU-145
  GI50: > 100 µM (inactive)
COLO 205
  GI50: > 100 µM (inactive)
NCI-H522
  GI50: > 100 µM (inactive)
HL-60
  GI50: > 100 µM (inactive)
NCI/ADR-RES
  GI50: > 100 µM (inactive)
OVCAR-8
  GI50: > 100 µM (inactive)
ACHN
  GI50: > 100 µM (inactive)
HT-29
  GI50: > 100 µM (inactive)
CAKI-1
  GI50: > 100 µM (inactive)
TK-10
  GI50: > 100 µM (inactive)
OVCAR-4
  GI50: > 100 µM (inactive)
MOLT-4
  GI50: > 100 µM (inactive)
MDA-N
  GI50: > 100 µM (inactive)
HOP-92
  GI50: > 100 µM (inactive)
NCI-H23
  GI50: > 100 µM (inactive)
OVCAR-3
  GI50: > 100 µM (inactive)
SNB-19
  GI50: > 100 µM (inactive)
NCI-H226
  GI50: > 100 µM (inactive)
UACC-257
  GI50: > 100 µM (inactive)

## CCOc1c(Br)cc(Br)cc1C=C(C#N)C#N
MDA-MB-435
  GI50: 4.18 µM (inactive)
786-0
  GI50: 7.01 µM (inactive)
SK-OV-3
  GI50: > 10 µM (inactive)
A549
  GI50: > 10 µM (inactive)
RPMI-8226
  GI50: 0.942 µM (active)
KM12
  GI50: 5.93 µM (inactive)
HCT-116
  GI50: 0.405 µM (active)
Hs-578T
  GI50: 3.67 µM (inactive)
CCRF-CEM
  GI50: 1.18 µM (inactive)
SNB-75
  GI50: 7.62 µM (inactive)
SK-MEL-5
  GI50: 3.61 µM (inactive)
HCC 2998
  GI50: > 10 µM (inactive)
SK-MEL-2
  GI50: > 10 µM (inactive)
SF-295
  GI50: 7.53 µM (inactive)
SK-MEL-28
  GI50: 8.26 µM (inactive)
HCT-15
  GI50: 2.96 µM
SN12C
  GI50: 6.27 µM (inactive)
SR
  GI50: 0.916 µM (active)
PC-3
  GI50: > 10 µM (inactive)
NCI-H460
  GI50: > 10 µM (inactive)
MCF7
  GI50: 6.21 µM (inactive)
U-251
  GI50: 3.52 µM (inactive)
HOP-62
  GI50: > 10 µM (inactive)
IGROV-1
  GI50: 4.29 µM (inactive)
A498
  GI50: 1.49 µM (inactive)
EKVX
  GI50: > 10 µM (inactive)
SW-620
  GI50: 2.23 µM (inactive)
T47D
  GI50: > 10 µM (inactive)
LOX IMVI
  GI50: 1.66 µM (inactive)
K562
  GI50: 1.16 µM (inactive)
COLO 205
  GI50: > 10 µM (inactive)
HL-60
  GI50: 0.227 µM (active)
NCI/ADR-RES
  GI50: 1.27 µM (inactive)
SF-268
  GI50: 5.82 µM (inactive)
UACC-62
  GI50: 6.08 µM (inactive)
OVCAR-8
  GI50: 3.42 µM (inactive)
SF-539
  GI50: 3.36 µM (inactive)
ACHN
  GI50: 2.77 µM (inactive)
HT-29
  GI50: > 10 µM (inactive)
TK-10
  GI50: 5.43 µM (inactive)
OVCAR-4
  GI50: > 10 µM (inactive)
Malme-3M
  GI50: > 10 µM (inactive)
MOLT-4
  GI50: 2.05 µM (inactive)
MDA-N
  GI50: 1.83 µM (inactive)
HOP-92
  GI50: 4.19 µM (inactive)
NCI-H23
  GI50: > 10 µM (inactive)
OVCAR-3
  GI50: > 10 µM (inactive)
RXF 393
  GI50: > 10 µM (inactive)
SNB-19
  GI50: 5.73 µM (inactive)
NCI-H226
  GI50: 0.69 µM (active)

## N#Cc1c(N2CCCC2)nsc1Nc1ccc(F)cc1
MDA-MB-435
  GI50: > 100 µM (inactive)
786-0
  GI50: > 100 µM (inactive)
SK-OV-3
  GI50: 61.2 µM (inactive)
MDA-MB-231
  GI50: > 100 µM (inactive)
A549
  GI50: > 100 µM (inactive)
RPMI-8226
  GI50: > 100 µM (inactive)
KM12
  GI50: > 100 µM (inactive)
HCT-116
  GI50: > 100 µM (inactive)
Hs-578T
  GI50: > 100 µM (inactive)
CCRF-CEM
  GI50: > 100 µM (inactive)
SK-MEL-5
  GI50: > 100 µM (inactive)
HCC 2998
  GI50: > 100 µM (inactive)
SK-MEL-2
  GI50: > 100 µM (inactive)
SF-295
  GI50: > 100 µM (inactive)
SK-MEL-28
  GI50: > 100 µM (inactive)
HCT-15
  GI50: > 100 µM
SN12C
  GI50: > 100 µM (inactive)
SR
  GI50: > 100 µM (inactive)
UO-31
  GI50: > 10 µM (inactive)
PC-3
  GI50: > 100 µM (inactive)
NCI-H460
  GI50: > 100 µM (inactive)
OVCAR-5
  GI50: > 100 µM (inactive)
U-251
  GI50: > 100 µM (inactive)
HOP-62
  GI50: > 100 µM (inactive)
IGROV-1
  GI50: > 100 µM (inactive)
A498
  GI50: > 100 µM (inactive)
M14
  GI50: > 100 µM (inactive)
EKVX
  GI50: 19.7 µM (inactive)
SW-620
  GI50: > 100 µM (inactive)
T47D
  GI50: > 100 µM (inactive)
LOX IMVI
  GI50: > 100 µM (inactive)
K562
  GI50: > 100 µM (inactive)
DU-145
  GI50: > 100 µM (inactive)
COLO 205
  GI50: > 100 µM (inactive)
NCI-H522
  GI50: 57.9 µM (inactive)
HL-60
  GI50: > 100 µM (inactive)
NCI/ADR-RES
  GI50: > 100 µM (inactive)
SF-268
  GI50: > 100 µM (inactive)
UACC-62
  GI50: > 100 µM (inactive)
OVCAR-8
  GI50: 78 µM (inactive)
SF-539
  GI50: > 100 µM (inactive)
ACHN
  GI50: > 100 µM (inactive)
HT-29
  GI50: > 100 µM (inactive)
CAKI-1
  GI50: 97.1 µM (inactive)
TK-10
  GI50: > 100 µM (inactive)
OVCAR-4
  GI50: > 100 µM (inactive)
Malme-3M
  GI50: > 100 µM (inactive)
MOLT-4
  GI50: > 100 µM (inactive)
MDA-N
  GI50: > 100 µM (inactive)
HOP-92
  GI50: > 100 µM (inactive)
NCI-H23
  GI50: > 100 µM (inactive)
OVCAR-3
  GI50: > 100 µM (inactive)
RXF 393
  GI50: > 100 µM (inactive)
SNB-19
  GI50: > 100 µM (inactive)
NCI-H226
  GI50: > 100 µM (inactive)
UACC-257
  GI50: > 100 µM (inactive)

## CN1C2C=CC(=O)C1C(C#N)C2 (stereo not drawn)
MDA-MB-435
  GI50: 29.5 µM (inactive) and 42.9 µM (inactive)
SK-OV-3
  GI50: > 100 µM (inactive) and 83.8 µM (inactive)
A549
  GI50: 66.4 µM (inactive) and 34.5 µM (inactive)
KM12
  GI50: 42.9 µM (inactive) and 38.5 µM (inactive)
HCT-116
  GI50: 33.5 µM (inactive) and 18.9 µM (inactive)
Hs-578T
  GI50: > 100 µM (inactive) and 85.3 µM (inactive)
CCRF-CEM
  GI50: 23.2 µM (inactive) and 19 µM (inactive)
SK-MEL-5
  GI50: 55.1 µM (inactive)
HCT-15
  GI50: 30.5 µM and 24.1 µM
SN12C
  GI50: 59.7 µM (inactive) and 35.8 µM (inactive)
PC-3
  GI50: > 100 µM (inactive)
NCI-H460
  GI50: 37.2 µM (inactive) and 31.7 µM (inactive)
MCF7
  GI50: 31.8 µM (inactive) and 35.8 µM (inactive)
HOP-62
  GI50: 94.4 µM (inactive)
IGROV-1
  GI50: 56 µM (inactive)
A498
  GI50: 49.5 µM (inactive) and 46.1 µM (inactive)
SW-620
  GI50: 28.7 µM (inactive) and 51.8 µM (inactive)
T47D
  GI50: 21.1 µM (inactive) and 39.2 µM (inactive)
K562
  GI50: 36.1 µM (inactive) and 19.3 µM (inactive)
DU-145
  GI50: 68.7 µM (inactive) and 40 µM (inactive)
HL-60
  GI50: 32.2 µM (inactive) and 18.6 µM (inactive)
NCI/ADR-RES
  GI50: 30.5 µM (inactive) and 28.2 µM (inactive)
SF-268
  GI50: 95.9 µM (inactive) and 75.5 µM (inactive)
UACC-62
  GI50: 80.4 µM (inactive) and 76.4 µM (inactive)
SF-539
  GI50: 28.4 µM (inactive) and 36.3 µM (inactive)
ACHN
  GI50: 72.3 µM (inactive) and 52.5 µM (inactive)
TK-10
  GI50: > 100 µM (inactive) and 66.4 µM (inactive)
Malme-3M
  GI50: 24 µM (inactive) and 40 µM (inactive)
MOLT-4
  GI50: 30.1 µM (inactive) and 29.5 µM (inactive)
MDA-N
  GI50: 29.1 µM (inactive) and 41.3 µM (inactive)
HOP-92
  GI50: 9.82 µM (inactive) and 16.4 µM (inactive)
NCI-H23
  GI50: 32.4 µM (inactive) and 22.3 µM (inactive)
OVCAR-3
  GI50: 62.1 µM (inactive) and 35.4 µM (inactive)
SNB-19
  GI50: 77.8 µM (inactive)
